Results on 22 compounds are retold here after patent US5025099A, “(3-amino-1-propynyl)methylthiothiophene derivatives” (American Cyanamid Company, priority 1990, dated 1991).

Where “and” joins values, the source holds several entries; their conditions need not be identical. Equal entries are not always repeated. Structures can show the parent of a compound that is named as a salt.

The first experiment deals with muscarinic cholinergic receptor. Description: [^3 H] Quinuclidinyl Benzilate (^3 H-QNB) Binding Assay, rat cerebral cortex homogenate. The settings on record: pH 7.4.
One may read the IC50 as the point on the concentration scale where inhibition reaches its midpoint. Low values mean inhibition by little substance, high ones a need for much substance. In turn, `CSc1cscc1C#CC[N+](C)(C)C` [N,N,N-Trimethyl-3-[4-(methylthio)-3-thienyl]-2-propyn-1-aminium, iodide] registered an IC50 of 9050 nM.

The experiment is the same for the next values; noted with them: rat cerebral cortex, 0.25 nM ^3 H-QNB, 25° C., pH 7.4.
The compound `CSc1sccc1C#CCN1CCCCC1` [1-[3-[2-(Methylthio)-3-thienyl]-2-propynyl]piperidine] displayed a half-maximal inhibitory concentration (IC50) of 1140 nM.

In turn, `CSc1sccc1C#CCN1CCCC1` [1-[3-[2-(Methylthio)-3-thienyl]-2-propynyl]pyrrolidine] yielded an IC50 of 920 nM. Still for that read-out and setting: then `CSc1ccsc1C#CCN1CCCCC1` [1-[3-[3-(Methylthio)-2-thienyl]-2-propynyl]piperidine], with 1970 nM; and `CSc1ccsc1C#CCN1CCCC1` [1-[3-[3-(Methylthio)-2-thienyl]-2-propynyl]pyrrolidine], with 1380 nM; and `CSc1cscc1C#CCN1CCCCC1` [1-[3-[4-(Methylthio)-3-thienyl]-2-propynyl]piperidine], with 5350 nM and 5880 nM. `CSc1cscc1C#CCN1CCCC1` [1-[3-[4-(Methylthio)-3-thienyl]-2-propynyl]pyrrolidine]: the IC50 was determined as 3340 nM. On to `CSc1sccc1C#CC[N+](C)(C)C` [N,N,N-Trimethyl-3-[2-(methylthio)-3-thienyl]-2-propyn-1-aminium, iodide], for which the IC50 is 3440 nM. Compound `CSc1ccsc1C#CC[N+](C)(C)C` [N,N,N-Trimethyl-3-[3-(methylthio)-2-thienyl]-2-propyn-1-aminium, iodide] came in with an IC50 of 5980 nM. Same read-out and setting: then `CSc1sccc1C#CCN(C)C` [N,N-Dimethyl-3-[2-(methylthio)-3-thienyl]-2-propyn-1-amine], with 21400 nM; and `CSc1ccsc1C#CCN(C)C` [N,N-Dimethyl-3-[3-(methylthio)-2-thienyl]-2-propyn-1-amine], with 35000 nM. The compound `CSc1cscc1C#CCN(C)C` [N,N-Dimethyl-3-[4-(methylthio)-3-thienyl]-2-propyn-1-amine] yielded an IC50 of 239000 nM.

Still in this experiment, the particulars now being: rat cerebral cortex, 0.25 nM ^3 H-QNB, 25° C., pH 7.4; hydrochloride.
`CSc1sccc1C#CCN1CCCCC1` [1-[3-[2-(Methylthio)-3-thienyl]-2-propynyl]piperidine, hydrochloride] registered a concentration for half-maximal inhibition (IC50) of 2200 nM. Still for that read-out and setting: then `CSc1sccc1C#CCN1CCCC1` [1-[3-[2-(Methylthio)-3-thienyl]-2-propynyl]pyrrolidine, hydrochloride], with 810 nM. Still for that read-out and setting: then `CSc1ccsc1C#CCN1CCCCC1` [1-[3-[3-(Methylthio)-2-thienyl]-2-propynyl]piperidine, hydrochloride], with 2100 nM; and `CSc1ccsc1C#CCN1CCCC1` [1-[3-[3-(Methylthio)-2-thienyl]-2-propynyl]pyrrolidine, hydrochloride], with 1870 nM. On to `CSc1cscc1C#CCN1CCCC1` [1-[3-[4-(Methylthio)-3-thienyl]-2-propynyl]pyrrolidine, hydrochloride], for which the concentration for half-maximal inhibition (IC50) turned out to be 2270 nM.

Compound `CSc1sccc1C#CCN(C)C` [N,N-Dimethyl-3-[2-(methylthio)-3-thienyl]-2-propyn-1-amine, hydrochloride] yielded a concentration for half-maximal inhibition (IC50) of 23300 nM. On the same count and under the same terms, then `CSc1ccsc1C#CCN(C)C` [N,N-Dimethyl-3-[3-(methylthio)-2-thienyl]-2-propyn-1-amine, hydrochloride], with 40400 nM; and `CSc1cscc1C#CCN(C)C` [N,N-Dimethyl-3-[4-(methylthio)-3-thienyl]-2-propyn-1-amine, hydrochloride], with 67500 nM.

The next experiment shares this target. Description: [^3 H]-Cis-methyldioxolane (^3 H-CD) Binding Assay (High Affinity), rat cerebral cortex homogenate. The settings on record: 1.0 nM ^3 H-CD, 25° C., 120 minutes, pH 7.4.
As for `CSc1sccc1C#CCN1CCCCC1` [1-[3-[2-(Methylthio)-3-thienyl]-2-propynyl]piperidine], the IC50 was 31.1 nM. With `CSc1sccc1C#CCN1CCCC1` [1-[3-[2-(Methylthio)-3-thienyl]-2-propynyl]pyrrolidine], the IC50 came out at 31 nM. Still for that read-out and setting: then `CSc1ccsc1C#CCN1CCCCC1` [1-[3-[3-(Methylthio)-2-thienyl]-2-propynyl]piperidine], with 122 nM; and `CSc1ccsc1C#CCN1CCCC1` [1-[3-[3-(Methylthio)-2-thienyl]-2-propynyl]pyrrolidine], with 16 nM; and `CSc1cscc1C#CCN1CCCCC1` [1-[3-[4-(Methylthio)-3-thienyl]-2-propynyl]piperidine], with 998 nM and 530 nM. The same measure, in the same setting: then `CSc1cscc1C#CCN1CCCC1` [1-[3-[4-(Methylthio)-3-thienyl]-2-propynyl]pyrrolidine], with 366 nM. Same read-out and setting: as for `CSc1sccc1C#CC[N+](C)(C)C` [N,N,N-Trimethyl-3-[2-(methylthio)-3-thienyl]-2-propyn-1-aminium, iodide], the figure is 52.3 nM; as for `CSc1ccsc1C#CC[N+](C)(C)C` [N,N,N-Trimethyl-3-[3-(methylthio)-2-thienyl]-2-propyn-1-aminium, iodide], 5.92 nM; as for `CSc1cscc1C#CC[N+](C)(C)C` [N,N,N-Trimethyl-3-[4-(methylthio)-3-thienyl]-2-propyn-1-aminium, iodide], 121 nM. `CSc1sccc1C#CCN(C)C` [N,N-Dimethyl-3-[2-(methylthio)-3-thienyl]-2-propyn-1-amine]: the half-maximal inhibitory concentration (IC50) was 942 nM.

As for `CSc1ccsc1C#CCN(C)C` [N,N-Dimethyl-3-[3-(methylthio)-2-thienyl]-2-propyn-1-amine], the IC50 came out at 1120 nM. Same read-out and setting: as for `CSc1cscc1C#CCN(C)C` [N,N-Dimethyl-3-[4-(methylthio)-3-thienyl]-2-propyn-1-amine], the figure is 4830 nM.

Still in this experiment, the particulars now being: 1.0 nM ^3 H-CD, 25° C., 120 minutes, pH 7.4, hydrochloride.
Compound `CSc1sccc1C#CCN1CCCCC1` [1-[3-[2-(Methylthio)-3-thienyl]-2-propynyl]piperidine, hydrochloride] returned a half-inhibitory concentration (IC50) of 32.5 nM. Still for that read-out and setting: as for `CSc1ccsc1C#CCN1CCCCC1` [1-[3-[3-(Methylthio)-2-thienyl]-2-propynyl]piperidine, hydrochloride], the figure is 44 nM; as for `CSc1ccsc1C#CCN1CCCC1` [1-[3-[3-(Methylthio)-2-thienyl]-2-propynyl]pyrrolidine, hydrochloride], 44 nM. The same measure, in the same setting: as for `CSc1cscc1C#CCN1CCCC1` [1-[3-[4-(Methylthio)-3-thienyl]-2-propynyl]pyrrolidine, hydrochloride], the figure is 110 nM; as for `CSc1sccc1C#CCN(C)C` [N,N-Dimethyl-3-[2-(methylthio)-3-thienyl]-2-propyn-1-amine, hydrochloride], 969 nM.

`CSc1ccsc1C#CCN(C)C` [N,N-Dimethyl-3-[3-(methylthio)-2-thienyl]-2-propyn-1-amine, hydrochloride] returned an IC50 of 1240 nM.

As to `CSc1cscc1C#CCN(C)C` [N,N-Dimethyl-3-[4-(methylthio)-3-thienyl]-2-propyn-1-amine, hydrochloride], the 50% inhibitory concentration (IC50) is 1230 nM.

Another experiment has as its system SDAT patients.
Assay: not given
Conditions: compared to the anticholinesterase inhibitor physostigmine; cited from earlier work.
Turning to `COC(=O)C1=CCCN(C)C1` [arecoline], the “improvement in SDAT patients” value is “more-consistent improvement”.

A further experiment has as its system muscarinic sites.
Assay: not given
The settings on record: Eur. J. Med. Chem., 1982, 17, 317; cited from earlier work.
In the case of `CC(=O)N(C)C(C)C#CCN1CCCC1` (stereo not shown) [BM-5, N-methyl-N-(1-methyl-4-pyrrolidino-2-butynyl)acetamide], the “activity at muscarinic sites” value is listed as “antagonist at some muscarinic sites while being an agonist at most others”.

Staying with this experiment, now noted: postsynaptic; cited from earlier work.
On to `CC(=O)N(C)C(C)C#CCN1CCCC1` (stereo not shown) [BM-5, N-methyl-N-(1-methyl-4-pyrrolidino-2-butynyl)acetamide], for which the postsynaptic cholinergic activity result is “postsynaptic partial cholinergic agonist”.

The experiment is the same for the next values; noted with them: presynaptic; cited from earlier work.
For `CC(=O)N(C)C(C)C#CCN1CCCC1` (stereo not shown) [BM-5, N-methyl-N-(1-methyl-4-pyrrolidino-2-butynyl)acetamide], the presynaptic cholinergic activity result is “presynaptic cholinergic antagonist”.
